Assay results reported in article PMC3883354 (Bioorganic & medicinal chemistry, 2013).

Target: T1, human GVIA iPLA2 (Homo sapiens, UniProt O60733)
T1 sequence (O60733 1-806): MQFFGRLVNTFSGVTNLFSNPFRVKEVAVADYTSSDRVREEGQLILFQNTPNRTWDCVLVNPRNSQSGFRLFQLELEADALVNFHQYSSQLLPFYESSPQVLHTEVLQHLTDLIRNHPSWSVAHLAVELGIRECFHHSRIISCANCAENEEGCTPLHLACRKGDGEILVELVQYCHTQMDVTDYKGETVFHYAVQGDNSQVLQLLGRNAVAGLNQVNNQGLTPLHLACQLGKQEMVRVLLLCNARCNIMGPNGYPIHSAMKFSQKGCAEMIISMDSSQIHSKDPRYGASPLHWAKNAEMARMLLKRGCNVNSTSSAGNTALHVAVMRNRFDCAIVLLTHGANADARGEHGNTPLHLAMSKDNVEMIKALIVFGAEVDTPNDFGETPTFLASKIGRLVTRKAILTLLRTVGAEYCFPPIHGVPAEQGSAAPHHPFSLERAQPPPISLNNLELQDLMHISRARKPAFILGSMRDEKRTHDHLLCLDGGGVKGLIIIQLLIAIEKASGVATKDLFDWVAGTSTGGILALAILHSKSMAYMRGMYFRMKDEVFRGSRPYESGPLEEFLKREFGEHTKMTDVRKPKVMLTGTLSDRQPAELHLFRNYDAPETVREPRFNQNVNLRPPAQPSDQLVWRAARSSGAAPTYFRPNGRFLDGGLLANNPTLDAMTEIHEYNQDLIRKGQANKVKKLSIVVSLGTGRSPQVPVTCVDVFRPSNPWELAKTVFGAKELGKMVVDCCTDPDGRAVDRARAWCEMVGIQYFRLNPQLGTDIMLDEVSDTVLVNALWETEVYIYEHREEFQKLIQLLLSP
Test: mixed micelle-based modified Dole assay, GVIA iPLA2 inhibition
Assay type: biochemical
Details: for fold weaker towards iPLA2 than FKGK11: compared with FKGK11

Structure (SMILES)	times weaker inhibitor towards GVIA iPLA2 than FKGK18 (compared with FKGK18) [times]	fold weaker towards iPLA2 than FKGK11
O=C(CCCCc1cccc2ccccc12)C(F)(F)F [5a, 1,1,1-Trifluoro-6-(naphthalen-1-yl)hexan-2-one]	9	–
O=C(CCCCc1ccc(-c2ccccc2)cc1)C(F)(F)F [5e, 6-(Biphenyl-4-yl)-1,1,1-trifluorohexan-2-one]	–	13 fold
O=C(CCCCc1ccc(-c2ccccc2)cc1)C(F)(F)C(F)(F)F [6e, 7-(Biphenyl-4-yl)-1,1,1,2,2-pentafluoroheptan-3-one]	–	ninefold weaker
